Activity calls are given as the source filed them.
How the values were obtained:
CAAX prenyl protease 2 [1] = biological target: T1, CAAX prenyl protease 2 (Saccharomyces cerevisiae S288c, UniProt Q03530); assay type: biochemical
T1 sequence (Q03530 whole entry): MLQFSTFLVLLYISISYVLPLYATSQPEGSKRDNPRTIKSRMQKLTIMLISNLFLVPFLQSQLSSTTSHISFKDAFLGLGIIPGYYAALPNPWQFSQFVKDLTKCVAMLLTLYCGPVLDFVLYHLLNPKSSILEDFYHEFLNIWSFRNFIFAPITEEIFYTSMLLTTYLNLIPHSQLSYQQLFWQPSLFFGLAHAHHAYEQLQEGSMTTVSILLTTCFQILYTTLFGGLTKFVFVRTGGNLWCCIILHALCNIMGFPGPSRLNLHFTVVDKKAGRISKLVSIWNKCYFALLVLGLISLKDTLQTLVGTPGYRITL

CAAX prenyl protease 2 [2] = biological target: T2, CAAX prenyl protease 2 (Homo sapiens, UniProt Q9Y256); assay: human Rce1 protease inhibitors, dose response, biochemical, yeast membranes, quenched-peptide fluorescence, cherry-pick (AID 588849)
T2 sequence (Q9Y256 whole entry): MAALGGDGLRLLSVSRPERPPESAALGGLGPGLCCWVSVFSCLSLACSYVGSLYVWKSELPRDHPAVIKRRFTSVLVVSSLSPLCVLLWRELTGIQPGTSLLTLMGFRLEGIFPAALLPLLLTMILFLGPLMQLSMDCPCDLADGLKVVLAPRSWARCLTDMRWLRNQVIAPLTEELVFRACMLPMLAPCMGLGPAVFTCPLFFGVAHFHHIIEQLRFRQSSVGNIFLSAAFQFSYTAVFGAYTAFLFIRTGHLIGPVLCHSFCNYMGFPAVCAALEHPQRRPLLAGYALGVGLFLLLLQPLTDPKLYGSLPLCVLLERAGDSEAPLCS

[3] = inhibitors of intracellular T. cruzi replication, confirmation, NIH3T3 host cells, beta-gal luminescence (AID 2044); assay type: functional, cell-based;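 note: intracellular parasites grown in NIH/3T3 mouse fibroblasts as host cells; luminescent beta-galactosidase reporter signal from transgenic T. cruzi replicating inside host cells; inhibitors lower the luminescence signal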
[4] = cytotoxicity toward NIH3T3 fibroblasts, dose response, counter-screen, cell-based, ATP luminescence, mouse fibroblasts (AID 2010); assay type: functional;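 note: cells exposed to compound for about 90 hours before reading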
[5] = biological target: Beta-2 adrenergic receptor (Homo sapiens, UniProt P07550); assay: beta2AR agonists driving receptor internalization, dose response, cell-based, FAP fluorogen, flow cytometry, cherry pick 1 (AID 588763); assay type: functional
BJ [6] = assay: cytotoxicity toward BJ-TERT fibroblasts, dose response, cell-based, RAS-independent, luminescence (AID 1933); assay type: functional; settings: Homo sapiens
BJ [7] = assay: cytotoxicity toward BJ-TERT-LT-ST fibroblasts, dose response, cell-based, RAS-independent, luminescence (AID 1935); assay type: functional; settings: Homo sapiens;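 note: BJ fibroblasts immortalized with TERT plus LT and ST oncogenes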
BJ [8] = assay: cytotoxicity toward Ras-transformed BJeLR fibroblasts, dose response, cell-based, alamar blue fluorescence, cherrypicked samples (AID 2631); assay type: functional; settings: Homo sapiens;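 note: confirmatory dose-response assay in RAS-dependent BJ fibroblasts engineered with TERT, LT and ST, with cytotoxicity read by fluorescence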
[9] = cytotoxicity toward DRD oncogenic fibroblasts, dose response, cell-based, non-viral oncogenic, luminescence (AID 1934); assay type: functional; settings: Homo sapiens
Vero = assay: cells; assay type: functional; settings: Chlorocebus sabaeus
BJ [10] = assay: cells; assay type: functional, cell-based; settings: Homo sapiens
HeLa = assay: HeLa cell cytotoxicity, dose response, cytotoxicity control for MITF activator project, CellTiter-Glo luminescence, cherry-pick samples (AID 540259); assay type: functional, cell-based; settings: Homo sapiens
[11] = biological target: Eukaryotic translation initiation factor 4H (Homo sapiens, UniProt Q15056); assay: human eIF4H binding inhibitors, primary screen, translation initiation inhibitor project, biochemical, uHTS, fluorescence polarization (AID 2012)
SUMO-activating enzyme [12] = biological target: T3, SUMO-activating enzyme (Homo sapiens, UniProt Q9UBT2); assay: inhibitors of in vitro SUMOylation cascade, primary screen, biochemical, HTRF, uHTS (AID 2006); assay type: protein-complex assay
[13] = biological target: Polyadenylate-binding protein 1 (Homo sapiens, UniProt P11940); assay: PABP poly(A) RNA binding inhibitors, primary screen, biochemical, fluorescence polarization, uHTS (AID 2014)
[14] = biological target: Tyrosine-protein phosphatase non-receptor type 11 (Homo sapiens, UniProt Q06124); assay: SHP2 phosphatase inhibition, dose response, selectivity assay for STEP inhibitor project, biochemical (AID 602367); assay type: functional; settings: read-out: IC50_Mean
[15] = biological target: Dual specificity protein phosphatase 3 (Homo sapiens, UniProt P51452); assay: VHR phosphatase inhibition, dose response, selectivity assay for STEP inhibitor project, biochemical (AID 602374); assay type: functional; settings: read-out: IC50_Mean
H9c2 = assay: cells; assay type: functional, cell-based; settings: Rattus norvegicus, H9c2, Myocardium;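 note: confirmatory concentration-response retest of ultra-high-throughput screening hits for modulation of myocardial damage; cell death induced by hydrogen peroxide oxidative stress; compound pretreatment for 60 min then peroxide exposure for 2 h; potency is for protecting the cells against peroxide damage rather than for killing them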
[16] = biological target: Tyrosine-protein phosphatase non-receptor type 5 (Homo sapiens, UniProt P54829); assay: STEP phosphatase inhibitors, confirmation, biochemical, fluorescence intensity, uHTS hits (AID 602372); assay type: functional; settings: read-out: IC50_Mean
SUMO-activating enzyme [17] = biological target: T3, SUMO-activating enzyme; assay: SUMOylation inhibitor hit validation, confirmation, SUMOylation inhibitor project, biochemical, AlphaScreen (AID 2018); assay type: functional
[18] = biological target: T4, Carboxy-terminal domain RNA polymerase II polypeptide A small phosphatase 1 (Homo sapiens, UniProt Q9GZU7); assay: inhibitors of CTDSP1, concentration-response testing, biochemical assay, absorbance-based, actives from ultra-high-throughput screening (AID 540297); assay type: functional
T4 sequence (Q9GZU7 whole entry): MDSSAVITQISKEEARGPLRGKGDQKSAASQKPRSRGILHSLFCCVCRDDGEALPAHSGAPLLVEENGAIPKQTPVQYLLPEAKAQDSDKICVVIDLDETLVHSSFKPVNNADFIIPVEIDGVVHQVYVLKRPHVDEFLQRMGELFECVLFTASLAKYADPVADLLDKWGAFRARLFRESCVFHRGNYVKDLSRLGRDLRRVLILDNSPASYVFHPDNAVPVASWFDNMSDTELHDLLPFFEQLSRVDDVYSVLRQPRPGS

[19] = biological target: Dual specificity protein kinase CLK1 (Homo sapiens, UniProt P49759); assay: CLK1 kinase inhibitors, off-target check, dose response, selectivity assay for Dyrk1A inhibitor project, biochemical, cherry-picked samples (AID 588811)
[20] = Luminescence Cell-Based Dose Confirmation HTS to Identify Inhibitors of Platelet Dense Granule Release. [Related pubchem assays: 1663 (Primary HTS), 1678 (Summary of Project)]; assay type: functional
[21] = biological target: Luciferin 4-monooxygenase (Photinus pyralis, UniProt P08659); assay: firefly luciferase enzyme inhibitors, dose response, biochemical, luminescence (AID 1891)
Luciferin 4-monooxygenase, sequence (P08659 whole entry): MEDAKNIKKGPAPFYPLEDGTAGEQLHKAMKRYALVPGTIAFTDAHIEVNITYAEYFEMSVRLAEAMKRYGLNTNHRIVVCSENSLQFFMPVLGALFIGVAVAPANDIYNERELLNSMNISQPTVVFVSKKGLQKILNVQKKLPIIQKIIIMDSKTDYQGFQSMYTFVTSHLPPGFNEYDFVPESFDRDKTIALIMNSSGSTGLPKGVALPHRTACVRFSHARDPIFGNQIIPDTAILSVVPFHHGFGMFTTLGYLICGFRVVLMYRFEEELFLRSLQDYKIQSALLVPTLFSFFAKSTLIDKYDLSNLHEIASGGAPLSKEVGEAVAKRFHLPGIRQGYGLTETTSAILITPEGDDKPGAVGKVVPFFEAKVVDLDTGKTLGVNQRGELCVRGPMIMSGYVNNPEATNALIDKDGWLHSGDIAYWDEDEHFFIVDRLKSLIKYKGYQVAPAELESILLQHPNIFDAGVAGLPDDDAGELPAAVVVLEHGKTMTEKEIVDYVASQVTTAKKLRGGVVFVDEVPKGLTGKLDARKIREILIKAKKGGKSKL

T3 sequence (Q9UBE0 whole entry): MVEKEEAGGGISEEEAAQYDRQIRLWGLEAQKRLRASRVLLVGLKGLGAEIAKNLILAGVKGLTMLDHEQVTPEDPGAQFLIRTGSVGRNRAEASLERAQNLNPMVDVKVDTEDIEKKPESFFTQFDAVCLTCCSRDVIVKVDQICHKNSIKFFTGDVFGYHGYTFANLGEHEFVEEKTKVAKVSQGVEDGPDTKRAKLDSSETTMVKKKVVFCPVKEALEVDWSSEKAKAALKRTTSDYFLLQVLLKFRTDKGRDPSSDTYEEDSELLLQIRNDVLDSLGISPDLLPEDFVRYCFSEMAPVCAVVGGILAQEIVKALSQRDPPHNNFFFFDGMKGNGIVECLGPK
T3 sequence (Q9UBT2 whole entry): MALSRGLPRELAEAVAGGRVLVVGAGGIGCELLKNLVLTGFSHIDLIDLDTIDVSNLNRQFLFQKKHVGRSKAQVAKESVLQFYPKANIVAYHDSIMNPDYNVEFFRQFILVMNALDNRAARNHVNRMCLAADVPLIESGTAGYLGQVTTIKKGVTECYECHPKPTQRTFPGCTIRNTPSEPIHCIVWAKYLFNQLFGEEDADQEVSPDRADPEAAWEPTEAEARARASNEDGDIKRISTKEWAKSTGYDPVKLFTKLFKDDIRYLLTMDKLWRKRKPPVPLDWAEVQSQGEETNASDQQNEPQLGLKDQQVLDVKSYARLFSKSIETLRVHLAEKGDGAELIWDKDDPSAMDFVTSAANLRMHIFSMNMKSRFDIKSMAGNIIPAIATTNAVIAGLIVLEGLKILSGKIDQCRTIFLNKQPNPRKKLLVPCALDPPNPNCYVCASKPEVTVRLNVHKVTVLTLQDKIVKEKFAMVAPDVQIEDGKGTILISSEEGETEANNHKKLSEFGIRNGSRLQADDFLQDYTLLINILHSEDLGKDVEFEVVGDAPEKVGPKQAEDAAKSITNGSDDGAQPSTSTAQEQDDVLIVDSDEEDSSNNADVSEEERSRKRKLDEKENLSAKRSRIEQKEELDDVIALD
Beta-2 adrenergic receptor, sequence (P07550 whole entry): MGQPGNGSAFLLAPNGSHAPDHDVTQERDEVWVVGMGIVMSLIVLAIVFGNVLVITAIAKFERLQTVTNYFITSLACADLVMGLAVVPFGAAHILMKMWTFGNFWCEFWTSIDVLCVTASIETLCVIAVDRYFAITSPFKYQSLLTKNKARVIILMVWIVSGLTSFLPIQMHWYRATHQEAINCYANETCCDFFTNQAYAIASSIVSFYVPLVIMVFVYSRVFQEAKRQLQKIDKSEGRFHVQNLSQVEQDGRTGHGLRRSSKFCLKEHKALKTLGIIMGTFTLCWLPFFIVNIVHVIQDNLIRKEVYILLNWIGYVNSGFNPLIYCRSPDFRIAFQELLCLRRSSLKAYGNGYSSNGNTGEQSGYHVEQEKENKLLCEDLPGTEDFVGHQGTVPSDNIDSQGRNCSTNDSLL
Tyrosine-protein phosphatase non-receptor type 11, sequence (Q06124 whole entry): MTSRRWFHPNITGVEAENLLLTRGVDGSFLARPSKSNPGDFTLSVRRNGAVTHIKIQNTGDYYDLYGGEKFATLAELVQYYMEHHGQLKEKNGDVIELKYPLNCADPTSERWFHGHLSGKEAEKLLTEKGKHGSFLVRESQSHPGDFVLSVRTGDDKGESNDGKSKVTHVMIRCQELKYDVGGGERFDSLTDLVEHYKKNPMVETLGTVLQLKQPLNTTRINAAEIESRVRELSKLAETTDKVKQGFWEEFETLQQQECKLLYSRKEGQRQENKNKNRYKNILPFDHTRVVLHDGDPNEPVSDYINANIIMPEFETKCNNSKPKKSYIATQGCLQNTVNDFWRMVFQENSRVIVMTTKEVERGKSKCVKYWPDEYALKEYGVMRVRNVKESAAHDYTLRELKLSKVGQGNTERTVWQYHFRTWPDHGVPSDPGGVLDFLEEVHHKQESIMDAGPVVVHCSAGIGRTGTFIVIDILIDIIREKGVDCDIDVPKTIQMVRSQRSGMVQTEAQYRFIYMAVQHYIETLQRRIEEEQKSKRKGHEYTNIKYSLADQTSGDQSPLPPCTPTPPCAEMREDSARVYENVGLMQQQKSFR
Polyadenylate-binding protein 1, sequence (P11940 whole entry): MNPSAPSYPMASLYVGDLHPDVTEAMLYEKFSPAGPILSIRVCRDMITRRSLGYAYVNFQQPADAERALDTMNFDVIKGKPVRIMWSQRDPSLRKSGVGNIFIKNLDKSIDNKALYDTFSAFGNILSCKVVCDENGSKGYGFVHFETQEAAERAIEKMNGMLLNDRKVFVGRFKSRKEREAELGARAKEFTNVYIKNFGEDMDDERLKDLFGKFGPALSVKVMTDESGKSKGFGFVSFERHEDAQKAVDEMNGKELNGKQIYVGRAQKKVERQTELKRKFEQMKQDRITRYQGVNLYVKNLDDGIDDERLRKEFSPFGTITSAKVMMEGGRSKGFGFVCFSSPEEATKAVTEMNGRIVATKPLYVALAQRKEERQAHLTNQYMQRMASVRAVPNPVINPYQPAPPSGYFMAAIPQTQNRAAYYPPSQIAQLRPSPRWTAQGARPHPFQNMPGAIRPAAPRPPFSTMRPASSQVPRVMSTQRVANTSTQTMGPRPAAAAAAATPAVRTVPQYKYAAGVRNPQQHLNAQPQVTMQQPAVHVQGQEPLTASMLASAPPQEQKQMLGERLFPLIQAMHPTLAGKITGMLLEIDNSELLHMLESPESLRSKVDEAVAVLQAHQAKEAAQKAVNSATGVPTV
Dual specificity protein phosphatase 3, sequence (P51452 whole entry): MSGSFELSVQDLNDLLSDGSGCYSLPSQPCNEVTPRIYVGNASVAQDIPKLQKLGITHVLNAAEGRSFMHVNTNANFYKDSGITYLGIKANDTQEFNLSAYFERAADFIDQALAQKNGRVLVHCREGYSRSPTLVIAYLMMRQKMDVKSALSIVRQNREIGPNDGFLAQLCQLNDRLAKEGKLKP
Tyrosine-protein phosphatase non-receptor type 5, sequence (P54829 whole entry): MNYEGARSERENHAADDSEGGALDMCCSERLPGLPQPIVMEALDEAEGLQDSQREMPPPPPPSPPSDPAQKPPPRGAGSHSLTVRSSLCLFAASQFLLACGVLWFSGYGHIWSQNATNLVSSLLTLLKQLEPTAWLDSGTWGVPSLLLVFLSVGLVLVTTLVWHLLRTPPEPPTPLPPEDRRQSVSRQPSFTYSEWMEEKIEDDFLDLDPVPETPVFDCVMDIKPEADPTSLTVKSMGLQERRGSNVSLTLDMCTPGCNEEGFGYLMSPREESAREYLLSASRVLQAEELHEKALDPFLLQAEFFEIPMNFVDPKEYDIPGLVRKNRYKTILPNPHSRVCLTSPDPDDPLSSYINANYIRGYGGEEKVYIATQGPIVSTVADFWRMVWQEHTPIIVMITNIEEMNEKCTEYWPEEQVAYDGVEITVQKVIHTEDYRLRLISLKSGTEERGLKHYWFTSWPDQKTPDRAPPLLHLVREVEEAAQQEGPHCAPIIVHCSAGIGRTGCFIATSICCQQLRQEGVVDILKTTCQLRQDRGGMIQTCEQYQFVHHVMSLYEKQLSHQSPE
Dual specificity protein kinase CLK1, sequence (P49759 whole entry): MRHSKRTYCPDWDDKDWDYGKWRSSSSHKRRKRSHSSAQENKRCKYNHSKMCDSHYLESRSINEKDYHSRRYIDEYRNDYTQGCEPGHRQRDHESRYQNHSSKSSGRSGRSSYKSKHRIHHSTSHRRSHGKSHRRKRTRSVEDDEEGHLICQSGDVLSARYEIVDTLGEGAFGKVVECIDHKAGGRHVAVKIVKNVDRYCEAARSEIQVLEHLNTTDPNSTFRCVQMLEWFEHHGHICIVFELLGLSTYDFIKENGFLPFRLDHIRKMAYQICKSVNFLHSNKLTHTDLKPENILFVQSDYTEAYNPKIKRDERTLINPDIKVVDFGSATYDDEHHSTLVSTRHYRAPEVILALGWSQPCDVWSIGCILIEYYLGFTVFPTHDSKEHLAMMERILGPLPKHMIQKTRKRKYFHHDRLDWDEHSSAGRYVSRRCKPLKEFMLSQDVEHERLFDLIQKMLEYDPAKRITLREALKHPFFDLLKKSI

**Q.** Which AC50 (CAAX prenyl protease 2 [1]) does the source give for CCOC(=O)c1c(NC(=O)c2cccc(N3C(=O)CCC3=O)c2)sc(C)c1C here?
**A.** > 100 µM (inactive)

**Q.** What about the AC50 (CAAX prenyl protease 2 [2]) of the same compound?
**A.** 31.5 µM (active)

**Q.** For C=CCn1c(SCc2ccccc2Cl)nnc1-c1sc2nc(C)cc(C)c2c1N, which EC50 [3] is on record?
**A.** 0.161 µM (active)

**Q.** What about the EC50 [4] of the same compound?
**A.** > 60 µM (not active)

**Q.** What about the EC50 [5] of the same compound?
**A.** 0.0757 µM (active)

**Q.** Which results are given for COc1ccc(/C=N\NC(=O)c2cccc(F)c2)cc1COc1ccccc1?
**A.** EC50 (BJ [6]): 0.575 µM (inconclusive); EC50 (BJ [7]): 5.12 µM (inconclusive); EC50 (BJ [8]): 0.286 µM (active); EC50 [9]: 1.15 µM (active); CC50 (Vero): 0.35 µM (active); EC50 (BJ [10]): 31.5 µM (active)

**Q.** With N#Cc1ccc(NC(=O)c2cccs2)nc1 as the compound, how does the AC50 (HeLa) read?
**A.** 248 µM (active)

**Q.** With CSc1ccc(/C=C/C(=O)OCC(=O)NC(C)C)cc1 as the compound, how does the AC50 (CAAX prenyl protease 2 [2]) read?
**A.** 35.8 µM (active)

**Q.** Which results are given for COc1cc(/C=N/NC(=O)c2ccccc2O)ccc1OCC(=O)Nc1ccccc1?
**A.** IC50 [11]: 15.4 µM (active); IC50 (SUMO-activating enzyme [12]): 8.71 µM (active); IC50 [13]: > 100 µM (inactive); IC50 [14]: 1.25 µM (active); IC50 [15]: 4.1 µM (active); IC50 (H9c2): > 79 µM (inactive); IC50 [16]: 26.2 µM (inactive); IC50 (SUMO-activating enzyme [17]): 16.4 µM (active); IC50 [18]: 5.46 µM (active)

**Q.** Which AC50 [19] does the source give for Cc1nc(CNc2ncnc3ccc(-c4ccoc4)cc23)cs1 here?
**A.** 0.0311 µM (active)

**Q.** What does the source list for COc1cc(OC)nc(NC(=O)CSc2nnc(-c3ccccc3)n2C2CCCCC2)n1?
**A.** EC50 [20]: > 112 µM (not active); EC50 [21]: > 112 µM (not active); EC50 [5]: 1.05 µM (active)

— ChEMBL document CHEMBL1201862, “PubChem BioAssay data set” (2004)
